Molecules are shown by their SMILES. Converted amounts (≈) assume the structure as drawn. The source made the active and inactive calls. No cut-off for these calls is given here.

Series [1] has as its system HEK293. Nature of the series: Inhibition of full-length huntingtin Q138 mutant (unknown origin) expressed in human T-RexTM-293 cells co-expressing CRE-Luc assessed as decrease of CREB-mediated transcription up to 50 uM after 72 hrs by luciferase reporter gene based luminescence assay. In kind it is cell-based. For orientation: Reporter assays use an easily measured gene product as a stand-in for the process of interest.

A short description of series [2]: Inhibition of full-length huntingtin Q138 mutant (unknown origin) expressed in human T-RexTM-293 cells co-expressing CRE-Luc assessed as decrease of CREB-mediated transcription after 72 hrs by luciferase reporter gene based luminescence assay. The format is cell-based. The conditions noted are these: HEK293, 72 h.
A short description of series [3]: Kinetic solubility of the compound at pH 7.4. The conditions noted are these: buffer, read-out: Kinetic_solubility. In kind it is physicochemical.
The species entered for series [4] is Rattus norvegicus. Kind of series: Inhibition of huntingtin 171-82Q mutant-mediated cell death in Sprague-Dawley rat striatal neurons at 10 to 30 uM by NeuN-positive cell counting assay.
Series [5] can be described thus: Cytotoxicity in Sprague-Dawley rat striatal neurons. The conditions noted are these: neuron. The format is cell-based.
The nature of series [6]: Permeability of the compound from apical to basolateral side of MDCK cells expressing MDR1 after 120 mins. The conditions noted are these: dog, read-out: permeability. The format is ADME, cell-based, Canis lupus familiaris.
Series [7] concerns the target Huntingtin (Rattus norvegicus) (UniProt P51111). Nature of the series: Inhibition of wild type huntingtin 171-18Q-mediated cell death in Sprague-Dawley rat striatal neurons at 1 to 30 uM by NeuN-positive cell counting assay.
The nature of series [8]: Intrinsic clearance in human liver microsomes at 1 uM in presence of NADPH. The conditions noted are these: read-out: CLH. The format is ADME, Microsome.
In series [9] the test system is HEK293. Nature of the series: Inhibition of full-length huntingtin Q138 mutant (unknown origin) expressed in human T-RexTM-293 cells co-expressing CRE-Luc assessed as decrease of CREB-mediated transcription after 72 hrs by luciferase reporter gene based luminescence assay relative to control. The format is cell-based.
Series [10] concerns MDCK. Nature of the series: Efflux ratio of permeability […] in MDCK cells expressing MDR1 after 120 mins. The format is ADME, cell-based, Canis lupus familiaris. The conditions noted are these: dog, 2 h.
Series [11] is described as follows: Intrinsic clearance in mouse liver microsomes at 1 uM in presence of NADPH. The format is ADME, Microsome. The conditions noted are these: read-out: CLH. In general terms: Liver microsomes are a subcellular fraction often used to study metabolism.
The nature of series [12]: Stability of the compound at pH 3 to 7.4 assessed as dehydration. In kind it is physicochemical. The conditions noted are these: buffer.

Huntingtin (Rattus norvegicus), sequence (P51111 whole entry): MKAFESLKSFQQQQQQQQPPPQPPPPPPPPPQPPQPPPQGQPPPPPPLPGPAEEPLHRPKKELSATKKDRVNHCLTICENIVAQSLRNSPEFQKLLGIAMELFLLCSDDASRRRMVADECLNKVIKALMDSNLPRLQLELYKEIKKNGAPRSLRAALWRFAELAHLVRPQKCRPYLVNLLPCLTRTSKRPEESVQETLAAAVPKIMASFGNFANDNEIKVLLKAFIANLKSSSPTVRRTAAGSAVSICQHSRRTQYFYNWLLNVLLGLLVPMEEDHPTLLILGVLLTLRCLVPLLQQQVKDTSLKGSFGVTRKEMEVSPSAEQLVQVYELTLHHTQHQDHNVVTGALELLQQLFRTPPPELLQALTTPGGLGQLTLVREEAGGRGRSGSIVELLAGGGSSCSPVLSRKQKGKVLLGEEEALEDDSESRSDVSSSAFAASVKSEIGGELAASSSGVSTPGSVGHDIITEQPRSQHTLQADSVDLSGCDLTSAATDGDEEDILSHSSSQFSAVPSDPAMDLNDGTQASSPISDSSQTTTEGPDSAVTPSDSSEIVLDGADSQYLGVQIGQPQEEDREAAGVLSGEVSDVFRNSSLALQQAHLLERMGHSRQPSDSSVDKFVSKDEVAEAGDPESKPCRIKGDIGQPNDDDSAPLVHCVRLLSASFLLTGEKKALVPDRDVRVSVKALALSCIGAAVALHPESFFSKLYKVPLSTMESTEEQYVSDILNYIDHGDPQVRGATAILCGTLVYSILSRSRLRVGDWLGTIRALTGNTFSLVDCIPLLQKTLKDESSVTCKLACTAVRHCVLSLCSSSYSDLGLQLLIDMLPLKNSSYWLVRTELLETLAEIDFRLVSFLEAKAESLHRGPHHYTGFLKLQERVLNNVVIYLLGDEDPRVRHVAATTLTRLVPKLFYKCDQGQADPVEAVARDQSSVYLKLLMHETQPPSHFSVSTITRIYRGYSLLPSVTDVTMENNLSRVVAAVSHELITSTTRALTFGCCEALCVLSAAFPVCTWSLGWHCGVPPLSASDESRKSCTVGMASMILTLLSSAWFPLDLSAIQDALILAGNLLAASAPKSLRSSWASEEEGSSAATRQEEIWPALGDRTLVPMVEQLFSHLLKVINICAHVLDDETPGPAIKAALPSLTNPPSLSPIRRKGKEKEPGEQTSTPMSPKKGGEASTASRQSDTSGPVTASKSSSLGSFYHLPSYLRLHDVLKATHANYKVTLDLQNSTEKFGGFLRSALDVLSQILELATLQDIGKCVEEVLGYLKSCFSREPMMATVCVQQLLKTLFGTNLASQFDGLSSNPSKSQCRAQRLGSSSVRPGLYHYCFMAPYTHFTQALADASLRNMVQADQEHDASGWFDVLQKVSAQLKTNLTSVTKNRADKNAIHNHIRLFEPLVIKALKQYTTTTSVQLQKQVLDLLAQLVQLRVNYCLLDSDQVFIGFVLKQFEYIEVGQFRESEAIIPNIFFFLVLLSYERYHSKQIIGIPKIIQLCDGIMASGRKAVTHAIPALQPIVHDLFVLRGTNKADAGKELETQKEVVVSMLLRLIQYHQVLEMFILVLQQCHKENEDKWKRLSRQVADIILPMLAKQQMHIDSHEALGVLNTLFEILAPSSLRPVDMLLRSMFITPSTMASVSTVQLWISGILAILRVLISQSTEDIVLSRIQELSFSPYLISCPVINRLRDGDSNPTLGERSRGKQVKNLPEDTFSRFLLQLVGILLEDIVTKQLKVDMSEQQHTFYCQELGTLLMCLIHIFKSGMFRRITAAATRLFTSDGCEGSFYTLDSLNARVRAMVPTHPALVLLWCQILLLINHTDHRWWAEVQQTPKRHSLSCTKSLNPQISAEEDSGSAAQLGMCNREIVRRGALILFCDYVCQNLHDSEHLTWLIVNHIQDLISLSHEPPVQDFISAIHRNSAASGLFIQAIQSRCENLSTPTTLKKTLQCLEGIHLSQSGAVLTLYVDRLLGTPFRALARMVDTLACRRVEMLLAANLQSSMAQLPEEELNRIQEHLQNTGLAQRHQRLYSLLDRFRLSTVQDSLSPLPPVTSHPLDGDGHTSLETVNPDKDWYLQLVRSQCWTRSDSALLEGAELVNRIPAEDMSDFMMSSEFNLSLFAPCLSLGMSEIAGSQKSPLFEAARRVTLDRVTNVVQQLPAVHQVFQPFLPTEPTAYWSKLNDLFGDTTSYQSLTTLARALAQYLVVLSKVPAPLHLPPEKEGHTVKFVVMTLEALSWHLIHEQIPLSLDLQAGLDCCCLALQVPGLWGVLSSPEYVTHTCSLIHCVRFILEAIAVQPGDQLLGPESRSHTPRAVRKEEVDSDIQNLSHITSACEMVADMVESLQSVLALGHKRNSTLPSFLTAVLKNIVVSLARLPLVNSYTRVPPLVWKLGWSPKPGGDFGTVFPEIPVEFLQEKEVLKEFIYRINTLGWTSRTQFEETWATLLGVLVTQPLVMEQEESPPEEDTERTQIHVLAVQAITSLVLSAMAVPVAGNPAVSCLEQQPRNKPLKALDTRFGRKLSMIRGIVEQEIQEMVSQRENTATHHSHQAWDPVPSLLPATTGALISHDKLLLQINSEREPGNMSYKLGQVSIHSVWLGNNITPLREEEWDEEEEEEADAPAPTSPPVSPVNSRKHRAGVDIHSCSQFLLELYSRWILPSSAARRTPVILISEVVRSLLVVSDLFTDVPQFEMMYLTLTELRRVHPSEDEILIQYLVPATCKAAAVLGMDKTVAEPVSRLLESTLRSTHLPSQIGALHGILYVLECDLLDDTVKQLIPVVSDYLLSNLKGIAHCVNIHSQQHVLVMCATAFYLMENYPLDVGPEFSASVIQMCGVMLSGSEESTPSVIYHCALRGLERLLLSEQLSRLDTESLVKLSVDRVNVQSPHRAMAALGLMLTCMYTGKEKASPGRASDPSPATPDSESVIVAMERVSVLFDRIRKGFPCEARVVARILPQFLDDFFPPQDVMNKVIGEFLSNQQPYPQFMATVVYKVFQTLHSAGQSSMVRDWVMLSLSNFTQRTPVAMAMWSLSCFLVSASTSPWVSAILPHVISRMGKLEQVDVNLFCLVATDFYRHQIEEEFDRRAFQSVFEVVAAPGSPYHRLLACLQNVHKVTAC

A word on the EC50: it is the midpoint of the concentration-response curve. Regarding `CC1=NN(C(=O)c2cccc(C)c2O)C(O)(C(F)(F)F)C1C` (stereo unspecified), the inhibition result in series [1] is “inactive”. The EC50 in series [2] was > 50 µM. The solubility kinetic in series [3] is 5 µM (≈ 1.58 µg/mL).
As a reminder, the Emax is the size of the effect at its maximum, as opposed to the concentration needed. With `Cn1cnc(S(=O)(=O)N2N=C3CCCC[C@@H]3[C@@]2(O)C(F)(F)F)c1` (racemic), the inhibition entry in series [4] and in series [7] was “Active” each time. In addition, the Activity result in series [5] is recorded as “Non-toxic”. In series [6], the Papp A→B at 2 h was determined as 12.8 ×10⁻⁶ cm/s. The microsomal CLint at 1 µM is 37.6 µL/min/mg in [8] and 28.3 µL/min/mg in series [11]. For the same molecule, the Emax in [9] turned out to be 41%. Further, the Ratio in series [10] is 0.9. In addition, the EC50 in [2] amounted to 1.7 µM. The solubility kinetic in series [3] turned out to be 156 µM (≈ 55 µg/mL). The Stability entry in [12] is “Stable”.
For the molecule `Cc1cccc(C(=O)N2N=C3CCCC[C@@H]3[C@@]2(O)C(F)(F)F)c1O` (racemic), the Papp A→B at 2 h in series [6] came out at 31.6 ×10⁻⁶ cm/s. For the same molecule, the figures for the microsomal CLint at 1 µM in [8] and in [11] were 352 µL/min/mg and > 700 µL/min/mg, respectively. Moreover, the Emax in series [9] worked out at 32%. In addition, the Ratio in series [10] was found to be 0.8. For the same molecule, the EC50 in [2] amounted to 5.2 µM. Besides, in [3], the solubility kinetic worked out at 101 µM (≈ 34.6 µg/mL). Also, in [12], the Stability result is reported as “Stable”.
Consider `Cn1cc(Br)c(C(=O)N2N=C3CCCC[C@@H]3[C@@]2(O)C(F)(F)F)n1` (racemic), for which the inhibition result in series [4] and in series [7] was “Active” each time. In series [5], the Activity entry is given as “Non-toxic”. The Papp A→B at 2 h in series [6] stood at 39.3 ×10⁻⁶ cm/s. Besides, the microsomal CLint at 1 µM in series [8] stood at 17.7 µL/min/mg; in series [11], 101 µL/min/mg. Also, the Emax in series [9] was 29%. Moreover, the Ratio in [10] worked out at 1. For the same molecule, the EC50 in series [2] worked out at 4.9 µM. The solubility kinetic in series [3] was 114 µM (≈ 45.1 µg/mL). Besides, the Stability result in series [12] was “Stable”.
On to `O=C(c1ccncc1)N1N=C2CCCC[C@@H]2[C@@]1(O)C(F)(F)F` (racemic), for which the inhibition entry in series [4] and in series [7] was “Active” throughout. Moreover, in series [5], the Activity result is given as “Non-toxic”. The Papp A→B at 2 h in series [6] came to 36 ×10⁻⁶ cm/s. Besides, the results for the microsomal CLint at 1 µM in series [8] and in [11] were 21.4 µL/min/mg and 54.6 µL/min/mg, respectively. Further, the Emax in series [9] was 42%. In [10], the Ratio was 1.1. Moreover, the EC50 in series [2] is 9.1 µM. Moreover, the solubility kinetic in series [3] came to 98 µM (≈ 30.7 µg/mL). The Stability result in series [12] is “Stable”.
Turning to `O=C(c1ccc[nH]1)N1N=C2CCCC[C@@H]2[C@@]1(O)C(F)(F)F` (racemic), the Emax in series [9] stood at 20%. In addition, in series [2], the EC50 is 28.7 µM. Besides, the solubility kinetic in [3] came to 72 µM (≈ 21.7 µg/mL). For the same molecule, in [12], the Stability entry is listed as “Stable”.
Consider `Cc1ccc(C(=O)N2N=C3CCCC[C@@H]3[C@@]2(O)C(F)(F)F)cn1` (racemic), for which the Papp A→B at 2 h in [6] was determined as 43.4 ×10⁻⁶ cm/s. Moreover, the microsomal CLint at 1 µM in series [8] amounted to 19.2 µL/min/mg; in series [11] it was 174 µL/min/mg. Moreover, the Emax in [9] was 43%. For the same molecule, the Ratio in [10] stood at 1.5. Besides, the EC50 in series [2] came to 3.7 µM. For the same molecule, the solubility kinetic in series [3] was 212 µM (≈ 69.4 µg/mL). For the same molecule, the Stability result in [12] is on record as “Stable”.
With `Cn1cc(N)c(C(=O)N2N=C3CCCC[C@@H]3[C@@]2(O)C(F)(F)F)n1` (racemic), the Papp A→B at 2 h in [6] stood at 17.2 ×10⁻⁶ cm/s. For the same molecule, the microsomal CLint at 1 µM in series [8] is < 5 µL/min/mg; in series [11] it was 22.9 µL/min/mg. Also, the Emax in series [9] was found to be 30%. In series [10], the Ratio was 1.6. In addition, the EC50 in series [2] came to 6.6 µM. In addition, the solubility kinetic in series [3] worked out at 205 µM (≈ 67.9 µg/mL). For the same molecule, in [12], the Stability result is on record as “Stable”.
Consider `Nc1nc(C(=O)N2N=C3CCCC[C@@H]3[C@@]2(O)C(F)(F)F)co1` (racemic), for which, in [6], the Papp A→B at 2 h is 29.1 ×10⁻⁶ cm/s. The results for the microsomal CLint at 1 µM in [8] and in series [11] were 6.1 µL/min/mg and 21.1 µL/min/mg, respectively. Moreover, the Emax in series [9] stood at 21%. The Ratio in [10] is 1.1. Besides, the EC50 in series [2] worked out at 17.1 µM. Besides, the solubility kinetic in [3] came to 153 µM (≈ 48.7 µg/mL). For the same molecule, the Stability entry in [12] is “Stable”.
As for `CCNc1cn(C)nc1C(=O)N1N=C2CCCC[C@@H]2[C@@]1(O)C(F)(F)F` (racemic), the Emax in series [9] was found to be 37%. Also, the EC50 in series [2] was 19.9 µM. Also, the solubility kinetic in [3] was 182 µM (≈ 65.4 µg/mL). Moreover, in [12], the Stability entry is given as “Stable”.
In the case of `Cc1ccc(C(=O)N2N=C3CCCCC[C@@H]3[C@@]2(O)C(F)(F)F)cn1` (racemic), in series [9], the Emax is 30%. In [2], the EC50 is 10 µM. In addition, the solubility kinetic in series [3] worked out at 56 µM (≈ 19.1 µg/mL). Further, the Stability result in series [12] is “Stable”.
Turning to `O=C(c1ccncc1)N1N=C2CCCCC[C@@H]2[C@@]1(O)C(F)(F)F` (racemic), the Papp A→B at 2 h in [6] is 36.2 ×10⁻⁶ cm/s. For the same molecule, the figures for the microsomal CLint at 1 µM in [8] and in series [11] were 71.9 µL/min/mg and 170 µL/min/mg, respectively. In addition, the Emax in series [9] stood at 34%. Besides, the Ratio in [10] is on record as 1. In addition, the concentration for a half-maximal effect (EC50) in series [2] is 10.8 µM. The solubility kinetic in [3] was 96 µM (≈ 31.4 µg/mL). The Stability entry in series [12] is “Stable”.
As for `O=C(c1ccc[nH]1)N1N=C2CCCCC[C@@H]2[C@@]1(O)C(F)(F)F` (racemic), the Emax in series [9] is 6%. Besides, the EC50 in series [2] was determined as 14.2 µM. Moreover, in [3], the solubility kinetic turned out to be 30 µM (≈ 9.46 µg/mL). Also, the Stability result in series [12] was “Stable”.
On the same counts, the results for `O=C(c1cncc(Br)c1)N1N=C2CCOC[C@@H]2[C@@]1(O)C(F)(F)F` (racemic) are 24%, 22.4 µM, 111 µM (≈ 43.8 µg/mL) and “Stable”.
Turning to `O=C(c1cccnc1)N1N=C2CCOC[C@@H]2[C@@]1(O)C(F)(F)F` (racemic), the Papp A→B at 2 h in series [6] turned out to be 29.2 ×10⁻⁶ cm/s. Also, the microsomal CLint at 1 µM in [8] came out at 15.7 µL/min/mg; in series [11], 16.6 µL/min/mg. Further, the Emax in series [9] was determined as 40%. Besides, in series [10], the Ratio was 1.1. Besides, the EC50 in series [2] amounted to 6.1 µM. Further, the solubility kinetic in series [3] is 187 µM (≈ 59 µg/mL). Also, in series [12], the Stability entry was “Stable”.
`CCOC(=O)c1c[nH]nc1S(=O)(=O)N1N=C2CCCC[C@@H]2[C@@]1(O)C(F)(F)F` (racemic): in series [9], the Emax was 34%. Further, the EC50 in [2] is 1.8 µM. Further, the solubility kinetic in series [3] is 111 µM (≈ 45.6 µg/mL). For the same molecule, the Stability result in series [12] was “Stable”.
On to `Cc1nn(C)c(Cl)c1S(=O)(=O)N1N=C2CCOC[C@@H]2[C@@]1(O)C(F)(F)F` (racemic), for which the Emax in series [9] was -17%. In series [2], the EC50 came out at 30 µM. Further, the Stability result in series [12] was “Stable”.

The values above are taken from ChEMBL document CHEMBL2439992, “Fused 3-Hydroxy-3-trifluoromethylpyrazoles Inhibit Mutant Huntingtin Toxicity” (ACS Med Chem Lett, 2013).
